The source of these data is the NIST ThermoML archive (doi:10.1016/j.jct.2008.12.005).

The nature of this data set: activity coefficient (dimensionless); of the first substance listed, at infinite dilution; xn = mol fraction of the nth substance listed. As to conditions: 101 kPa, Liquid, Chromatography, x1 = 0.

± gives the expanded uncertainty stated by the source.

As to `CCCCC` [pentane] + CC[S+](CC)CC.O=S(=O)([N-]S(=O)(=O)C(F)(F)F)C(F)(F)F, the activity coefficient (298.15 K) amounted to 21.6 ± 1.5; the activity coefficient (308.15 K) turned out to be 19.9 ± 1.4; the activity coefficient (318.15 K) is 18.3 ± 1.3; the activity coefficient (328.15 K) stood at 16.8 ± 1.1; the activity coefficient (338.15 K) came out at 15.6 ± 1.1; the activity coefficient (348.15 K) was found to be 14.6 ± 1. Moreover, the activity coefficient turned out to be 13.5 ± 0.9 (358.15 K) and 12.7 ± 0.9 (368.15 K).

On to `Cc1cccc(C)c1` [1,3-dimethylbenzene] + CC[S+](CC)CC.O=S(=O)([N-]S(=O)(=O)C(F)(F)F)C(F)(F)F, for which the activity coefficient by setting is: (308.15 K) 2.29 ± 0.16; (318.15 K) 2.31 ± 0.16; (328.15 K) 2.33 ± 0.16; (338.15 K) 2.34 ± 0.16; (348.15 K) 2.36 ± 0.16; (358.15 K) 2.38 ± 0.16. In addition, the activity coefficient (368.15 K) was 2.39 ± 0.16.

Consider `C#CCCC` [1-pentyne] + CC[S+](CC)CC.O=S(=O)([N-]S(=O)(=O)C(F)(F)F)C(F)(F)F, for which the activity coefficient reads like this: (298.15 K) 2.52 ± 0.17; (308.15 K) 2.52 ± 0.17; (318.15 K) 2.53 ± 0.17; (328.15 K) 2.54 ± 0.17; (338.15 K) 2.54 ± 0.17; (348.15 K) 2.55 ± 0.17. Besides, the activity coefficient worked out at 2.55 ± 0.17 (358.15 K) and 2.55 ± 0.17 (368.15 K).

With `CCc1ccccc1` [ethylbenzene] + CC[S+](CC)CC.O=S(=O)([N-]S(=O)(=O)C(F)(F)F)C(F)(F)F, the activity coefficient reads like this: (298.15 K) 2.42 ± 0.16; (308.15 K) 2.43 ± 0.17; (318.15 K) 2.43 ± 0.17; (328.15 K) 2.44 ± 0.17; (338.15 K) 2.44 ± 0.17; (348.15 K) 2.45 ± 0.17. Moreover, the activity coefficient turned out to be 2.45 ± 0.17 (358.15 K) and 2.45 ± 0.17 (368.15 K).

For `C1CCOC1` [tetrahydrofuran] + CC[S+](CC)CC.O=S(=O)([N-]S(=O)(=O)C(F)(F)F)C(F)(F)F, the activity coefficient turned out to be 0.788 ± 0.051 (298.15 K); 0.803 ± 0.052 (308.15 K); 0.82 ± 0.053 (318.15 K); 0.834 ± 0.054 (328.15 K); 0.846 ± 0.054 (338.15 K); 0.859 ± 0.055 (348.15 K). Also, the activity coefficient by setting is: (358.15 K) 0.872 ± 0.056; (368.15 K) 0.885 ± 0.056.

`c1ccccc1` [benzene] + CC[S+](CC)CC.O=S(=O)([N-]S(=O)(=O)C(F)(F)F)C(F)(F)F: the activity coefficient was 1.08 ± 0.07 (298.15 K); 1.1 ± 0.07 (308.15 K); 1.11 ± 0.07 (318.15 K); 1.12 ± 0.07 (328.15 K); 1.13 ± 0.07 (338.15 K); 1.13 ± 0.07 (348.15 K). Further, the activity coefficient is, setting by setting: (358.15 K) 1.14 ± 0.07; (368.15 K) 1.15 ± 0.07.

Turning to `C1CCCCCCC1` [cyclooctane] + CC[S+](CC)CC.O=S(=O)([N-]S(=O)(=O)C(F)(F)F)C(F)(F)F, the activity coefficient was 30.3 ± 2.1 (298.15 K); 27.2 ± 1.9 (308.15 K); 24.5 ± 1.7 (318.15 K); 22.4 ± 1.5 (328.15 K); 20.4 ± 1.4 (338.15 K); 18.7 ± 1.3 (348.15 K). Besides, the activity coefficient (358.15 K) is 17.2 ± 1.2 and the activity coefficient (368.15 K) was found to be 16 ± 1.1.

Consider `C=CCCCC` [hex-1-ene] + CC[S+](CC)CC.O=S(=O)([N-]S(=O)(=O)C(F)(F)F)C(F)(F)F, for which the activity coefficient was found to be 12.5 ± 0.9 (298.15 K); 11.8 ± 0.8 (308.15 K); 11.3 ± 0.8 (318.15 K); 10.6 ± 0.7 (328.15 K); 10.1 ± 0.7 (338.15 K); 9.69 ± 0.66 (348.15 K). Also, the activity coefficient (358.15 K) was found to be 9.3 ± 0.63 and the activity coefficient (368.15 K) was determined as 8.94 ± 0.61.
